“And” between values parts separate entries of the source, which are not always exact repeats. Equal entries are not always repeated. Where two headings read alike, the source gives them in different places.
Tested on: HT29 colon tumors
Settings: Intravenous Injection, daily

O=c1[nH]cc(F)c(=O)[nH]1 [5′-FU, 5′-fluorouracil]
% Change (High Dose): −67.0% | Comments (death) (High Dose): Died day 13 | Tumor Volume Post-treatment (High Dose): 132 mm^3 | Tumor Volume Pre-Treatment (High Dose): 402 mm^3 | Comments (death) (Low Dose): Died day 13 | Tumor Volume Post-treatment (Low Dose): 703 mm^3 and 402 mm^3 | Tumor Volume Pre-Treatment (Low Dose): 402 mm^3
